Key:
[1] = 101.33 kPa, Liquid; for viscosity: Concentric cylinders viscometry; for mass density: Vibrating tube method
[2] = refractive index (Na D-line) (dimensionless); settings: 101.33 kPa, Liquid, Standard Abbe refractometry

CCn1cc[n+](C)c1.O=C([O-])[C@@H]1CCCN1 [1-ethyl-3-methyl-1H-imidazolium L-prolinate]
Settings | mass density, [1] [kg/m3] | refractive index, [2] | viscosity, [1] [mPa·s]
293.15 K | 1158.14 | 1.51523 | 626.95
298.15 K | 1155.08 | 1.51372 | 426.12
303.15 K | 1152 | 1.51229 | 295.17
308.15 K | 1148.9 | 1.51073 | 210.2
313.15 K | 1145.78 | 1.50924 | 153.57
318.15 K | 1142.64 | 1.50774 | 114.27
323.15 K | 1139.5 | 1.50621 | 87.05
328.15 K | 1136.36 | 1.50454 | 67.61
333.15 K | 1133.22 | 1.5031 | 54.04
338.15 K | 1130.08 | – | 43.43
343.15 K | 1126.93 | – | 35.47
348.15 K | 1123.79 | – | 29.36
353.15 K | 1120.63 | – | 24.5

CCn1cc[n+](C)c1.C[C@H](N)C(=O)[O-] [1-ethyl-3-methylimidazolium L-alaninate]
Settings | mass density, [1] [kg/m3] | refractive index, [2] | viscosity, [1] [mPa·s]
293.15 K | 1139.2 | 1.50586 | 235.36
298.15 K | 1136.1 | 1.5041 | 171.19
303.15 K | 1133 | 1.50246 | 126.6
308.15 K | 1129.8 | 1.50072 | 93.87
313.15 K | 1126.6 | 1.49908 | 72.02
318.15 K | 1123.5 | 1.49735 | 56.62
323.15 K | 1120.3 | 1.49568 | 45.13
328.15 K | 1117.2 | 1.49395 | 36.56
333.15 K | 1114 | 1.49228 | 30.1
338.15 K | 1110.9 | – | 25.02
343.15 K | 1107.8 | – | 21.21
348.15 K | 1104.7 | – | 18.05
353.15 K | 1101.6 | – | 15.51

CCn1cc[n+](C)c1.NCC(=O)[O-] [1-ethyl-3-methylimidazolium ammonioacetate]
Settings | mass density, [1] [kg/m3] | refractive index, [2] | viscosity, [1] [mPa·s]
293.15 K | 1158 | 1.50628 | 80.37
298.15 K | 1154.7 | 1.50473 | 61.51
303.15 K | 1151.6 | 1.50313 | 47.75
308.15 K | 1148.5 | 1.50154 | 37.79
313.15 K | 1145.3 | 1.49988 | 30.31
318.15 K | 1142.2 | 1.49827 | 24.89
323.15 K | 1139 | 1.49657 | 20.64
328.15 K | 1135.8 | 1.49488 | 17.33
333.15 K | 1132.7 | 1.49321 | 14.72
338.15 K | 1129.5 | – | 12.64
343.15 K | 1126.3 | – | 10.94
348.15 K | 1123.2 | – | 9.55
353.15 K | 1120.1 | – | 8.38

CC[n+]1ccn(C)c1.N[C@@H](CO)C(=O)[O-] [3-ethyl-1-methyl-1H-imidazolium L-serinate]
Settings | mass density, [1] [kg/m3] | refractive index, [2] | viscosity, [1] [mPa·s]
293.15 K | 1198.3 | 1.51205 | 611.87
298.15 K | 1195.2 | 1.51069 | 410.86
303.15 K | 1191.9 | 1.50932 | 279.82
308.15 K | 1188.6 | 1.50791 | 196.7
313.15 K | 1185.2 | 1.50654 | 142.28
318.15 K | 1182 | 1.50511 | 105.8
323.15 K | 1178.9 | 1.50372 | 80.49
328.15 K | 1175.8 | 1.50224 | 62.48
333.15 K | 1172.6 | 1.50083 | 49.31
338.15 K | 1169.5 | – | 39.63
343.15 K | 1166.3 | – | 32.36
348.15 K | 1162.9 | – | 26.82
353.15 K | 1159.8 | – | 22.47

Source: the NIST ThermoML archive (doi:10.1021/je2002368)
